In ChEMBL document CHEMBL1148862, “Evaluation of the anti-hepatitis C virus effect of novel potent, selective, and orally bioavailable JNK and VEGFR kinase inhibitors” (Bioorg Med Chem Lett, 2007):
The source made the active and inactive calls. The rule behind the calls is not given here.

Assays:
[1] = Cytotoxicity against Huh7 cells by luciferase assay; format: cell-based, Huh-7; conditions: human
[2] = Cytotoxicity against MT4 cells by luciferase assay; format: cell-based; conditions: human
Hepatitis C virus [3] = assay: Antiviral activity against HCV in Huh7-Rep cells by luciferase assay; format: functional, organism-based, Hepacivirus hominis
[4] = Half life in Swiss SPF (CD1) mouse liver at 20 mg/kg, po after 2 to 8 hrs; format: ADME, organism-based; parameters: dose 20 mg/kg, route oral
[5] = Drug level in Swiss SPF (CD1) mouse heart at 20 mg/kg, po after 1 hr; format: ADME, organism-based; parameters: dose 20 mg/kg, route oral; conditions: read-out: Drug uptake
[6] = Drug level in Swiss SPF (CD1) mouse plasma at 20 mg/kg, po after 8 hrs; format: ADME, organism-based; parameters: dose 20 mg/kg, route oral
[7] = Cmax in Swiss SPF (CD1) mouse plasma at 20 mg/kg, po; format: ADME, organism-based; parameters: dose 20 mg/kg, route oral
[8] = molecular target: Mitogen-activated protein kinase 8 (Homo sapiens, UniProt P45983); assay: Inhibition of JNK1
[9] = Drug level in Swiss SPF (CD1) mouse plasma at 20 mg/kg, po after 1 hr; format: ADME, organism-based; parameters: dose 20 mg/kg, route oral
[10] = AUC (0 to 8 hrs) in Swiss SPF (CD1) mouse heart at 20 mg/kg, po; format: ADME, organism-based; parameters: time < 8 hr, dose 20 mg/kg, route oral
[11] = Drug level in Swiss SPF (CD1) mouse liver at 20 mg/kg, po after 2 hrs; format: ADME, organism-based; parameters: dose 20 mg/kg, route oral; conditions: read-out: Drug uptake
[12] = Drug level in Swiss SPF (CD1) mouse plasma at 20 mg/kg, po after 24 hrs; format: ADME, organism-based; parameters: dose 20 mg/kg, route oral
[13] = Half life in Swiss SPF (CD1) mouse heart at 20 mg/kg, po after 2 to 8 hrs; format: ADME, organism-based; parameters: dose 20 mg/kg, route oral
[14] = Inhibition of HCV NS5B polymerase; parameters: species or system Hepacivirus hominis
[15] = molecular target: Mitogen-activated protein kinase 9 (Homo sapiens, UniProt P45984); assay: Inhibition of human JNK2
[16] = Drug level in Swiss SPF (CD1) mouse heart at 20 mg/kg, po after 2 hrs; format: ADME, organism-based; parameters: dose 20 mg/kg, route oral; conditions: read-out: Drug uptake
[17] = Half life in Swiss SPF (CD1) mouse plasma at 20 mg/kg, po after 2 to 8 hrs; format: ADME, organism-based; parameters: dose 20 mg/kg, route oral
[18] = molecular target: Vascular endothelial growth factor receptor 1 (Homo sapiens, UniProt P17948); assay: Inhibition of human VEGFR1
[19] = Drug level in Swiss SPF (CD1) mouse liver at 20 mg/kg, po after 1 hr; format: ADME, organism-based; parameters: dose 20 mg/kg, route oral; conditions: read-out: Drug uptake
[20] = Tmax in Swiss SPF (CD1) mouse liver at 20 mg/kg, po; format: ADME, organism-based; parameters: dose 20 mg/kg, route oral
[21] = Drug level in Swiss SPF (CD1) mouse plasma at 20 mg/kg, po after 0.5 hrs; format: ADME, organism-based; parameters: dose 20 mg/kg, route oral
[22] = AUC (0 to infinity) in Swiss SPF (CD1) mouse heart at 20 mg/kg, po; format: ADME, organism-based; parameters: time infinity, dose 20 mg/kg, route oral
[23] = molecular target: Vascular endothelial growth factor receptor 3 (Homo sapiens, UniProt P35916); assay: Inhibition of human VEGFR3
Hepatitis C virus [24] = assay: Antiviral activity against HCV subgenomic 1b replicon upto 32 uM; format: functional, organism-based; conditions: Hepacivirus hominis; genotype 1b
[25] = Drug level in Swiss SPF (CD1) mouse heart at 20 mg/kg, po after 4 hrs; format: ADME, organism-based; parameters: dose 20 mg/kg, route oral; conditions: read-out: Drug uptake
[26] = AUC (0 to infinity) in Swiss SPF (CD1) mouse liver at 20 mg/kg, po; format: ADME, organism-based; parameters: time infinity, dose 20 mg/kg, route oral
[27] = Tmax in Swiss SPF (CD1) mouse plasma at 20 mg/kg, po; format: ADME, organism-based; parameters: dose 20 mg/kg, route oral
[28] = Drug level in Swiss SPF (CD1) mouse liver at 20 mg/kg, po after 8 hrs; format: ADME, organism-based; parameters: dose 20 mg/kg, route oral; conditions: read-out: Drug uptake
[29] = Drug level in Swiss SPF (CD1) mouse plasma at 20 mg/kg, po after 4 hrs; format: ADME, organism-based; parameters: dose 20 mg/kg, route oral
[30] = Cmax in Swiss SPF (CD1) mouse liver at 20 mg/kg, po; format: ADME, organism-based; parameters: dose 20 mg/kg, route oral
[31] = Drug level in Swiss SPF (CD1) mouse heart at 20 mg/kg, po after 8 hrs; format: ADME, organism-based; parameters: dose 20 mg/kg, route oral; conditions: read-out: Drug uptake
[32] = Tmax in Swiss SPF (CD1) mouse heart at 20 mg/kg, po; format: ADME, organism-based; parameters: dose 20 mg/kg, route oral
TGF-beta receptor type-1 = molecular target: T1, TGF-beta receptor type-1 (Homo sapiens, UniProt P36897)
T1 sequence (P36897 whole entry): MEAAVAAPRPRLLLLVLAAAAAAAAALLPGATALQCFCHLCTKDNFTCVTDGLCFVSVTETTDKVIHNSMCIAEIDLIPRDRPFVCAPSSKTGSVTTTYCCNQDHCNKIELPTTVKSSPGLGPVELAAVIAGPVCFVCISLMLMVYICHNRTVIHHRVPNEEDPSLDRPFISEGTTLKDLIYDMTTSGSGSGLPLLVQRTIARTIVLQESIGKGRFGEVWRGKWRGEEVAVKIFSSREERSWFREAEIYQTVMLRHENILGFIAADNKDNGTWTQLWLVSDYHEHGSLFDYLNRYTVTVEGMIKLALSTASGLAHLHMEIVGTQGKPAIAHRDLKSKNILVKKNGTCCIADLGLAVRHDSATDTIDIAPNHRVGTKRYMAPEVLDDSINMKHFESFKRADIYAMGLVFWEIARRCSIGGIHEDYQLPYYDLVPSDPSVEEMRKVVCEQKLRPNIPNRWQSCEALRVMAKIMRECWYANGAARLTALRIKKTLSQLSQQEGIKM

[33] = Drug level in Swiss SPF (CD1) mouse plasma at 20 mg/kg, po after 2 hrs; format: ADME, organism-based; parameters: dose 20 mg/kg, route oral
[34] = molecular target: Mitogen-activated protein kinase 10 (Homo sapiens, UniProt P53779); assay: Inhibition of human JNK3
[35] = Inhibition of HCV NS3/4A protease; parameters: species or system Hepacivirus hominis
[36] = AUC (0 to 8 hrs) in Swiss SPF (CD1) mouse liver at 20 mg/kg, po; format: ADME, organism-based; parameters: time < 8 hr, dose 20 mg/kg, route oral
[37] = Drug level in Swiss SPF (CD1) mouse heart at 20 mg/kg, po after 24 hrs; format: ADME, organism-based; parameters: dose 20 mg/kg, route oral; conditions: read-out: Drug uptake
[38] = AUC (0 to infinity) in Swiss SPF (CD1) mouse plasma at 20 mg/kg, po; format: ADME, organism-based; parameters: time infinity, dose 20 mg/kg, route oral
[39] = Drug level in Swiss SPF (CD1) mouse heart at 20 mg/kg, po after 0.5 hrs; format: ADME, organism-based; parameters: dose 20 mg/kg, route oral; conditions: read-out: Drug uptake
[40] = system: Bovine viral diarrhea virus 1; assay: Antiviral activity against BVDV upto 100 uM; format: functional, organism-based
[41] = Cmax in Swiss SPF (CD1) mouse heart at 20 mg/kg, po; format: ADME, organism-based; parameters: dose 20 mg/kg, route oral
[42] = Drug level in Swiss SPF (CD1) mouse liver at 20 mg/kg, po after 0.5 hrs; format: ADME, organism-based; parameters: dose 20 mg/kg, route oral; conditions: read-out: Drug uptake
[43] = Drug level in Swiss SPF (CD1) mouse liver at 20 mg/kg, po after 4 hrs; format: ADME, organism-based; parameters: dose 20 mg/kg, route oral; conditions: read-out: Drug uptake
Hepatitis C virus [44] = assay: Antiviral activity against HCV subgenomic 1a replicon upto 32 uM; format: functional, organism-based; conditions: Hepacivirus hominis; subtype 1a
Hepatitis C virus [45] = assay: Antiviral activity against HCV ET replicon with NS3 E1202G, T1280I mutation and NS4B K1846 mutation; format: functional, organism-based; conditions: Hepacivirus hominis
[46] = AUC (0 to 8 hrs) in Swiss SPF (CD1) mouse plasma at 20 mg/kg, po; format: ADME, organism-based; parameters: time < 8 hr, dose 20 mg/kg, route oral
[47] = molecular target: Vascular endothelial growth factor receptor 2 (Homo sapiens, UniProt P35968); assay: Inhibition of human VEGFR2
Vascular endothelial growth factor receptor 2, sequence (P35968 whole entry): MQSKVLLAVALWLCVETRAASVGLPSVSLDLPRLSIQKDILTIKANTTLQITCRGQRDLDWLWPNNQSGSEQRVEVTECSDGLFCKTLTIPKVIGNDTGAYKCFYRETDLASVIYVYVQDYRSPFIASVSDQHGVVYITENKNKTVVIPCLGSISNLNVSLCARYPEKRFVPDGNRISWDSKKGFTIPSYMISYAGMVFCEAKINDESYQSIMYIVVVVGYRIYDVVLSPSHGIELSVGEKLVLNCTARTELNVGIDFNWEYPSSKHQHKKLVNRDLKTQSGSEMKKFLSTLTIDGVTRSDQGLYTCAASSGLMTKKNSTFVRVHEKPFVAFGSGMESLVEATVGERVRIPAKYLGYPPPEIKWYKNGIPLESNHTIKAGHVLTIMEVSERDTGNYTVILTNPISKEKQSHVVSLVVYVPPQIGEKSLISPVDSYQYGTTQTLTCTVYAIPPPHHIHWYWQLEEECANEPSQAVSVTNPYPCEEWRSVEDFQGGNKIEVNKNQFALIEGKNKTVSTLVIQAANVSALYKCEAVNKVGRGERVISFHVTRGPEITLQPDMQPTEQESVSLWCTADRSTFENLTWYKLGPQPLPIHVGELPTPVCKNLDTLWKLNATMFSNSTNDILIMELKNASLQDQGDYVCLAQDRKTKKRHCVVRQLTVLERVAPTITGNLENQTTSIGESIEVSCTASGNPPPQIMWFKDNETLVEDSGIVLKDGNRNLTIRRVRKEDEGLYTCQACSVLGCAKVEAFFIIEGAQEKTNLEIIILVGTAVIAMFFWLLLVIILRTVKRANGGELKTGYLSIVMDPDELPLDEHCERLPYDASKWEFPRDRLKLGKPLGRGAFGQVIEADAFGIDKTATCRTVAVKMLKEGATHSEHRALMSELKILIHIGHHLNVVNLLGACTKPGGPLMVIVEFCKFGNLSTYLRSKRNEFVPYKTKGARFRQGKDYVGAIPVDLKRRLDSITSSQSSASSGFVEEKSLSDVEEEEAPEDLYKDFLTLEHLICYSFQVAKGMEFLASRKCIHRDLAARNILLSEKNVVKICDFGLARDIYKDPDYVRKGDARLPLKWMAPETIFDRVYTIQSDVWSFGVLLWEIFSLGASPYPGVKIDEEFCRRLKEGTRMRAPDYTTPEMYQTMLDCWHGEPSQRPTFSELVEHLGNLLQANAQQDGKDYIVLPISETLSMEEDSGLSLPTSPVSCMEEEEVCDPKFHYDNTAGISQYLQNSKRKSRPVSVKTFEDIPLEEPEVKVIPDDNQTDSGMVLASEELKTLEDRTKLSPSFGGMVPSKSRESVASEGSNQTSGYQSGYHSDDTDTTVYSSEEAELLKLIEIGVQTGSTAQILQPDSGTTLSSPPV

Mitogen-activated protein kinase 9, sequence (P45984 whole entry): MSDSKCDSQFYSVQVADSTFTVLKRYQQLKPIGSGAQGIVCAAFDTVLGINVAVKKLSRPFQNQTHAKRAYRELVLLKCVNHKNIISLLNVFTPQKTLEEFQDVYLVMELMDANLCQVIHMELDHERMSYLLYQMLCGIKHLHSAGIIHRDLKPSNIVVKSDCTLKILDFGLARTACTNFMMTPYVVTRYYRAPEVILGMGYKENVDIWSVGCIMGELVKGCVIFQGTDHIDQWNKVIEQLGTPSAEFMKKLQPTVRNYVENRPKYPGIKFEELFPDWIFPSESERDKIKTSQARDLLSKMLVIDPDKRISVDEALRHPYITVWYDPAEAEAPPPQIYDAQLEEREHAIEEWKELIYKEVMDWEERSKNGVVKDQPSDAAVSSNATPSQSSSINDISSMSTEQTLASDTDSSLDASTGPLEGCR
Vascular endothelial growth factor receptor 1, sequence (P17948 whole entry): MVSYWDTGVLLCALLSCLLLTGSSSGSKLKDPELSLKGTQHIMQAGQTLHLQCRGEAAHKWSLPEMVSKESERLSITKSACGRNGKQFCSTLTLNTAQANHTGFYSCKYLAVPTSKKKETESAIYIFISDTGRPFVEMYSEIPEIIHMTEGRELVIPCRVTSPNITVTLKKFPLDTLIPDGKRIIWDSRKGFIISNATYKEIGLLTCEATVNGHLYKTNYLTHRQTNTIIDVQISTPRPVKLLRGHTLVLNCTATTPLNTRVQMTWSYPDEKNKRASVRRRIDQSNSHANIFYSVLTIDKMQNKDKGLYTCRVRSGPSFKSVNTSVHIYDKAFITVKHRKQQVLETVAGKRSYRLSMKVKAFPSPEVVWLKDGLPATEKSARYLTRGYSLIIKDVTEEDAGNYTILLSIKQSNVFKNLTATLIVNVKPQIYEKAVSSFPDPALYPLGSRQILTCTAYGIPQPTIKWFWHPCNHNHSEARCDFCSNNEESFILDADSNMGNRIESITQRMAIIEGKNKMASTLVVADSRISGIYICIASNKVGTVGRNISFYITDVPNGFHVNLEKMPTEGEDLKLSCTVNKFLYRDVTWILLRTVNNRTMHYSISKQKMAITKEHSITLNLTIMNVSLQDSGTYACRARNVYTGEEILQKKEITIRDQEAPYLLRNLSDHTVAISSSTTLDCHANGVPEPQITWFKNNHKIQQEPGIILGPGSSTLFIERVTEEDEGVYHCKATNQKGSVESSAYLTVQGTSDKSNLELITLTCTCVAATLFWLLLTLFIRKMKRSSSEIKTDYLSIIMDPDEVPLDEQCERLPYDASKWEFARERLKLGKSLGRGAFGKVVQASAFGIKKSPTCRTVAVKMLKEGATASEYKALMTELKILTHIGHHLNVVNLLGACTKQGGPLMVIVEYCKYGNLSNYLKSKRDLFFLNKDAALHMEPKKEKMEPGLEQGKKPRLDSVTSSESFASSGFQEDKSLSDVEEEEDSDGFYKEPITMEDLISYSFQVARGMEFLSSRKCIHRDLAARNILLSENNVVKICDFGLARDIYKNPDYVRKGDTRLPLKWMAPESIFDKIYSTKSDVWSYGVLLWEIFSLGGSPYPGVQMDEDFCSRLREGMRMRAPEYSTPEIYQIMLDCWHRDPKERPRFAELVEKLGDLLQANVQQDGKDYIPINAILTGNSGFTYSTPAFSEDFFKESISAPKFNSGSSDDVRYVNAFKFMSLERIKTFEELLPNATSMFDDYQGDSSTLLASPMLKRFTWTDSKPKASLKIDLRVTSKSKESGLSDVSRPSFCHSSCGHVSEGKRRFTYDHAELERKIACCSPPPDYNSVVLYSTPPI
Mitogen-activated protein kinase 8, sequence (P45983 whole entry): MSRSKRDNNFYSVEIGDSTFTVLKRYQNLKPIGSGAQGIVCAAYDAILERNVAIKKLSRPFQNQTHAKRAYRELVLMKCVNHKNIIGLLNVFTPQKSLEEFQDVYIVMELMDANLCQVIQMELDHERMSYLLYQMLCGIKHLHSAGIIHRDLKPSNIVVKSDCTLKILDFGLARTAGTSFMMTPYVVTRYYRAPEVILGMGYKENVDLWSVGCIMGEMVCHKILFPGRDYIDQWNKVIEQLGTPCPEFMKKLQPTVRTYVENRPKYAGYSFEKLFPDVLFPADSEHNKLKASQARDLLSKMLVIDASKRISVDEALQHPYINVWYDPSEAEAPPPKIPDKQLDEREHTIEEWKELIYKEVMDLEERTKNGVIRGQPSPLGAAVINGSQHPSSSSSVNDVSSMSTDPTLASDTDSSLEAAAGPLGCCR
Mitogen-activated protein kinase 10, sequence (P53779 whole entry): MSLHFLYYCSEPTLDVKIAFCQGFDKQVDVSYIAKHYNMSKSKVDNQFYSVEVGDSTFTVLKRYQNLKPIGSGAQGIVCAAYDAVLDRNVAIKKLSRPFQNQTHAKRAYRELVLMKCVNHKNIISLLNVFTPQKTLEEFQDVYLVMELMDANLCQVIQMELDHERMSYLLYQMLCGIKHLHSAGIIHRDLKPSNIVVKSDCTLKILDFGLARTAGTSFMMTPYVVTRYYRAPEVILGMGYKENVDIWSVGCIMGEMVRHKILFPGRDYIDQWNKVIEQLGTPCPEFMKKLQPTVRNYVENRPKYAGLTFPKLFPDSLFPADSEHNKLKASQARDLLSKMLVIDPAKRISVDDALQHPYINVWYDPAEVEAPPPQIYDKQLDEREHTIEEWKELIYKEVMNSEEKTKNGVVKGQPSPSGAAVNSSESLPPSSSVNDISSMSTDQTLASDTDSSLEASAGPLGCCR

Cc1ccccc1Nc1nc(-c2cc(Br)ccc2F)nc2nccnc12
CC50 [1]: > 32 µM
CC50 [2]: > 32 µM
EC50 (Hepatitis C virus [3]): 6.4 µM

COc1cnc(-c2cc(Cl)ccc2F)nc1Nc1ccncc1C(=O)NC1CCN(C(=O)OC(C)(C)C)CC1
CC50 [1]: 4 µM
CC50 [2]: 3.9 µM
EC50 (Hepatitis C virus [3]): 1 µM

FC(F)(F)c1cccc(-c2nc(Nc3ccncc3)c3nccnc3n2)c1
CC50 [1]: > 25 µM
CC50 [2]: > 25 µM
EC50 (Hepatitis C virus [3]): 1.91 µM

Cc1cc(Nc2nc(-c3cc(Br)ccc3F)nc3nccnc23)ccn1
CC50 [1]: 12.9 µM
CC50 [2]: 13.2 µM
EC50 (Hepatitis C virus [3]): 3.6 µM

COc1cnc(-c2cc(Cl)ccc2F)nc1Nc1ccncc1C(=O)NCCCN1CCCC1=O
CC50 [1]: 17.7 µM
CC50 [2]: 5.8 µM
EC50 (Hepatitis C virus [3]): 0.084 µM

Clc1cccc(-c2nc(Nc3ccncc3)c3nccnc3n2)c1
CC50 [1]: > 32 µM
CC50 [2]: > 32 µM
EC50 (Hepatitis C virus [3]): 1.67 µM

CCc1cnccc1Nc1nc(-c2cc(Cl)ccc2F)nc2nccnc12
CC50 [1]: > 32 µM
CC50 [2]: > 32 µM
EC50 (Hepatitis C virus [3]): 0.71 µM

COc1cnc(-c2cc(Cl)ccc2F)nc1Nc1ccncc1C(=O)NCCNCCO
CC50 [1]: > 32 µM
CC50 [2]: > 32 µM
EC50 (Hepatitis C virus [3]): 0.85 µM

Cc1cnccc1Nc1nc(-c2cc(Br)ccc2F)nc2nccnc12
CC50 [1]: > 32 µM
CC50 [2]: > 32 µM
EC50 (Hepatitis C virus [3]): 0.8 µM

Fc1ccc(Br)cc1-c1nc(N(Cc2ccccc2)c2ccncc2)c2nccnc2n1
CC50 [1]: > 32 µM
CC50 [2]: > 32 µM
EC50 (Hepatitis C virus [3]): 0.99 µM

O=C(NCCCN1CCCC1=O)c1cnccc1Nc1nc(-c2cc(Br)ccc2F)nc2nccnc12
half-life [4]: 3.5 h
concentration at 1 h [5]: 557 ng/mL
CC50 [1]: > 32 µM
concentration at 8 h [6]: 5.52 ng/mL
Cmax [7]: 220 ng/mL
IC50 [8]: 10.5 µM
concentration at 1 h [9]: 166 ng/mL
AUC(0-t) at 8 h [10]: 1120 ng·h/mL
concentration at 2 h [11]: 611 ng/mL
concentration at 24 h [12]: < 0.5 ng/mL
half-life [13]: 3.4 h
IC50 [14]: > 30 µM
CC50 [2]: > 32 µM
EC50 (Hepatitis C virus [3]): 0.064 µM
IC50 [15]: 0.037 µM
concentration at 2 h [16]: 92.9 ng/mL
half-life [17]: 2.9 h
IC50 [18]: 0.047 µM
concentration at 1 h [19]: 2940 ng/mL
Tmax [20]: 0.5 h
concentration at 0.5 h [21]: 220 ng/mL
AUC(0-inf) [22]: 1260 ng·h/mL
IC50 [23]: 0.123 µM
Activity (Hepatitis C virus [24]): inactive
concentration at 4 h [25]: 83.6 ng/mL
AUC(0-inf) [26]: 7970 ng·h/mL
Tmax [27]: 0.5 h
concentration at 8 h [28]: 201 ng/mL
concentration at 4 h [29]: 20.3 ng/mL
Cmax [30]: 4060 ng/mL
concentration at 8 h [31]: 29.1 ng/mL
Tmax [32]: 0.5 h
IC50 (TGF-beta receptor type-1): 0.0032 µM
concentration at 2 h [33]: 21.7 ng/mL
IC50 [34]: 0.059 µM
IC50 [35]: > 30 µM
AUC(0-t) at 8 h [36]: 6960 ng·h/mL
concentration at 24 h [37]: 5 ng/mL
AUC(0-inf) [38]: 332 ng·h/mL
concentration at 0.5 h [39]: 678 ng/mL
Activity [40]: inactive
Cmax [41]: 678 ng/mL
concentration at 0.5 h [42]: 4060 ng/mL
concentration at 4 h [43]: 627 ng/mL
Activity (Hepatitis C virus [44]): inactive
Activity (Hepatitis C virus [45]): Active
AUC(0-t) at 8 h [46]: 309 ng·h/mL
IC50 [47]: 0.14 µM

COc1cnc(-c2cc(Cl)ccc2F)nc1Nc1ccncc1C(=O)NCCCn1ccnc1
CC50 [1]: 15.3 µM
CC50 [2]: 8.1 µM
EC50 (Hepatitis C virus [3]): 0.92 µM

CCOC(=O)CNC(=O)c1cnccc1Nc1nc(-c2cc(Cl)ccc2F)ncc1OC
CC50 [1]: > 32 µM
CC50 [2]: > 32 µM
EC50 (Hepatitis C virus [3]): 4.6 µM

CN(c1ccccc1)c1nc(-c2cc(Br)ccc2F)nc2nccnc12
CC50 [1]: > 32 µM
CC50 [2]: > 32 µM
EC50 (Hepatitis C virus [3]): 1.98 µM

CCCCN(c1ccncc1)c1nc(-c2cc(Br)ccc2F)nc2nccnc12
CC50 [1]: > 32 µM
CC50 [2]: > 32 µM
EC50 (Hepatitis C virus [3]): 2.2 µM
